This passage reports inhibition results from patent US10081635B2, “Substituted N-(pyrrolidine-3-yl)-7H-pyrrolo[2,3-D]pyrimidine-4-amine as janus kinase inhibitor” (YANG JI CHEMICAL CO., LTD., priority 2014, dated 2018).

Assay type in all cases: biochemical
One test has as its target Human JAK1 (Homo sapiens (Human), UniProt P23458). Description: In vitro kinase inhibition test, JAK1 (33P-ATP filter scintillation). Particulars: compound at 1 uM; read-out: JAK1 kinase-phosphorylation inhibitory level (% inhibition). Here is the method:
(§1) 1. In Vitro Kinase Inhibition Test
(§2) Kinases used were human-derived JAK1, JAK2, JAK3, and TYK2 (Millipore, Germany). Each of these kinases was diluted with a suitable buffer solution as described below, and then mixed with reagents.
Tris(hydroxymethyl)aminomethane (TRIS) and ethylenediaminetetraacetic acid (EDTA) were dissolved in distilled water at a concentration of 20 mM and 0.2 mM, respectively, and 100 uL of β-mercaptoethanol, 10 uL of Brij-35™, and 5 mL of glycerol, each per 100 mL of the solution, were added to the solution, thereby preparing a JAK1 dilution buffer solution.
(§3) Each compound was dissolved in a 100% DMSO solution at a 50 uM concentration. This solution was reacted with reagents in wells on a 96-well plate to reach a final concentration of 1 uM. Detailed experimental methods for each kinase are described below.
After reaction for about 40 minutes at room temperature, the reaction was stopped by adding 5 uL of a 3% (v/v) phosphoric acid solution. […] The methanol drying is a drying process using an azeotropic effect, wherein methanol is added into an aqueous solution for drying.
(§4) In Tables 5 and 6, the numbers in the “Example” column, which are identification numbers of the examples, indicate the compounds synthesized in the corresponding examples, the values in the “JAK1”, “JAK2”, “JAK3”, and “TYK2” columns represent kinase-phosphorylation inhibitory levels as a percentage (%) of the compounds synthesized in the corresponding examples at a 1 uM concentration. In Tables 5 and 6, negative values substantially indicate no inhibitory effect.
(§5) The inhibitory levels (% inhibition) represent a percentage of reduction in phosphorylation activity in each test group with respect to the phosphorylation activity of a corresponding kinase in a negative control group lacking any of the compounds synthesized in the examples. % inhibition=[(Scintillation value of Test compound non-treatment group−Scintillation value of Test compound treatment group)/(Scintillation value of Test compound non-treatment group)]×100

The next test concerns the target Human TYK2 (Homo sapiens (Human), UniProt P29597). Description: In vitro kinase inhibition test, TYK2 (33P-ATP filter scintillation). Conditions: compound at 1 uM; read-out: TYK2 kinase-phosphorylation inhibitory level (% inhibition). On the procedure: as §1, §2
(§6) 3-morpholinopropane-1-sulfonic acid (MOPS) and EDTA were dissolved in distilled water at a concentration of 20 mM and 1 mM, respectively, and 100 uL of β-mercaptoethanol, 10 uL of Brij-35™, 5 mL of glycerol, and 100 mg of bovine serum albumin (BSA), each per 100 mL of the solution, were added to the solution, thereby preparing a JAK2, JAK3, and TYK2 dilution buffer solution.
as §3
(§7) After reaction for about 40 minutes at room temperature, the reaction was stopped by adding 5 uL of a 3% (v/v) phosphoric acid solution.
as §4, §5

Another test addresses Human JAK3 (Homo sapiens (Human), UniProt P52333). Description: In vitro kinase inhibition test, JAK3 (33P-ATP filter scintillation). Particulars: compound at 1 uM; read-out: JAK3 kinase-phosphorylation inhibitory level (% inhibition). On the procedure: as §1, §2, §6, §3, §7, §4, §5
The target in the next test is Human JAK2 (Homo sapiens (Human), UniProt O60674). Description: In vitro kinase inhibition test, JAK2 (33P-ATP filter scintillation). Conditions: compound at 1 uM; read-out: JAK2 kinase-phosphorylation inhibitory level (% inhibition). On the procedure: as §1, §2, §6, §3, §7, §4, §5

As a reminder, the inhibition is the drop in the measured response relative to a control, in per cent.

Human JAK2, sequence (O60674 whole entry): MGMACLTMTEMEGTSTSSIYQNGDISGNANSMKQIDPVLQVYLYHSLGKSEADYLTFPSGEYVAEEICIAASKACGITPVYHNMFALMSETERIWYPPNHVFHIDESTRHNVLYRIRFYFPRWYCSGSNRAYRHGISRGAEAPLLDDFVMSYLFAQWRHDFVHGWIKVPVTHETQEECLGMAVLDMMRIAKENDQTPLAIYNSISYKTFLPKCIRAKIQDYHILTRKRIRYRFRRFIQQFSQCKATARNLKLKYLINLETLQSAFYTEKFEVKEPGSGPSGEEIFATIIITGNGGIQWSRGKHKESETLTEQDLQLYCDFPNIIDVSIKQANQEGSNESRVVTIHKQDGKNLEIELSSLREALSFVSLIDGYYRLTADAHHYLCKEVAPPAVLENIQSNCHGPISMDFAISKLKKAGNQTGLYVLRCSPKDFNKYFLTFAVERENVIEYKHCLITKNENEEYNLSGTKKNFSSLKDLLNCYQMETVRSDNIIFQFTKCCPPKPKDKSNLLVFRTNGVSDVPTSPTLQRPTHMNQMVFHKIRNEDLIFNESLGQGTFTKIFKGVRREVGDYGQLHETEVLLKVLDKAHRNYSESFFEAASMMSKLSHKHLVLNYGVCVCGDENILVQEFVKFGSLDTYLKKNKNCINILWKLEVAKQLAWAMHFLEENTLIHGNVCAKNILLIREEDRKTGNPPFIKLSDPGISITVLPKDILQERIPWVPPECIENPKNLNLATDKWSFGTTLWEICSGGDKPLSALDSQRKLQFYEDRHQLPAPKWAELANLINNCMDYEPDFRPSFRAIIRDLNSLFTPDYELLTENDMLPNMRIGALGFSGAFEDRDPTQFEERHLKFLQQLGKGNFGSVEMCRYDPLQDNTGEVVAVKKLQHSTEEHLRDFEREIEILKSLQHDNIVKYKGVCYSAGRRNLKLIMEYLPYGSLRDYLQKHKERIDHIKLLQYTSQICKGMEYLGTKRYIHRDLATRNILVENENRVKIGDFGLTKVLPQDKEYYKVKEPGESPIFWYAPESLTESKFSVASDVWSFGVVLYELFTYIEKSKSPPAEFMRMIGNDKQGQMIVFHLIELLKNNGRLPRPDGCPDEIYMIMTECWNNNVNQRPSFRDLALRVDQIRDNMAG
Human JAK1, sequence (P23458 whole entry): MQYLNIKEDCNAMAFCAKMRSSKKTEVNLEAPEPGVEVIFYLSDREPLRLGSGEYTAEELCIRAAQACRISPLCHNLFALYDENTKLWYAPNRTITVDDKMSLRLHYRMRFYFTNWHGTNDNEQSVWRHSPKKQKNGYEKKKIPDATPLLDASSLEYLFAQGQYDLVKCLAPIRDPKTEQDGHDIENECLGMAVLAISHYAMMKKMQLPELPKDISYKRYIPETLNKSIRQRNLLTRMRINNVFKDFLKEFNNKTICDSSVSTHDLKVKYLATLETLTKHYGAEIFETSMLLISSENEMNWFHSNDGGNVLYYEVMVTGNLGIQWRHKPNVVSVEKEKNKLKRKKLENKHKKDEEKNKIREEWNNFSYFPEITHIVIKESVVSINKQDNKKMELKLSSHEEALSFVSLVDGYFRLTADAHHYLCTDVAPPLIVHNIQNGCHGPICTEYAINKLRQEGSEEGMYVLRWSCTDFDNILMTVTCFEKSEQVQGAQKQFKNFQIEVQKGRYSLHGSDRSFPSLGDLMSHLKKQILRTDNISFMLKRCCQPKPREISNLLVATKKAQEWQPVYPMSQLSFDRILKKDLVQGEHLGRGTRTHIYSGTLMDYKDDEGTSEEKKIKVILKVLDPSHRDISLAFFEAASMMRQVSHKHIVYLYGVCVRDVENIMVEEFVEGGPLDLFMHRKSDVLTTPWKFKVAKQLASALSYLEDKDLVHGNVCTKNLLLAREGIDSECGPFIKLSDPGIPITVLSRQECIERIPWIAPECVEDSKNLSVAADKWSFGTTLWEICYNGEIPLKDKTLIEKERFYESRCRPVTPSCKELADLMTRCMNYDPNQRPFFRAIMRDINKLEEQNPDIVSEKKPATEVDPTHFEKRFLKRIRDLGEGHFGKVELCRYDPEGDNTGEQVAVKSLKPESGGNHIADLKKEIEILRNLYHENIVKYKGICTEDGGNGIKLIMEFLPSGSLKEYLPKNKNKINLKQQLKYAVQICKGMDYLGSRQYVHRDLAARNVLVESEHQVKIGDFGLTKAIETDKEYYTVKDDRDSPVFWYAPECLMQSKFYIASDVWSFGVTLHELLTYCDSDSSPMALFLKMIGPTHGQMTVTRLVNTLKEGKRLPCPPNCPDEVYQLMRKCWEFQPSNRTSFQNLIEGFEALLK
Human JAK3, sequence (P52333 whole entry): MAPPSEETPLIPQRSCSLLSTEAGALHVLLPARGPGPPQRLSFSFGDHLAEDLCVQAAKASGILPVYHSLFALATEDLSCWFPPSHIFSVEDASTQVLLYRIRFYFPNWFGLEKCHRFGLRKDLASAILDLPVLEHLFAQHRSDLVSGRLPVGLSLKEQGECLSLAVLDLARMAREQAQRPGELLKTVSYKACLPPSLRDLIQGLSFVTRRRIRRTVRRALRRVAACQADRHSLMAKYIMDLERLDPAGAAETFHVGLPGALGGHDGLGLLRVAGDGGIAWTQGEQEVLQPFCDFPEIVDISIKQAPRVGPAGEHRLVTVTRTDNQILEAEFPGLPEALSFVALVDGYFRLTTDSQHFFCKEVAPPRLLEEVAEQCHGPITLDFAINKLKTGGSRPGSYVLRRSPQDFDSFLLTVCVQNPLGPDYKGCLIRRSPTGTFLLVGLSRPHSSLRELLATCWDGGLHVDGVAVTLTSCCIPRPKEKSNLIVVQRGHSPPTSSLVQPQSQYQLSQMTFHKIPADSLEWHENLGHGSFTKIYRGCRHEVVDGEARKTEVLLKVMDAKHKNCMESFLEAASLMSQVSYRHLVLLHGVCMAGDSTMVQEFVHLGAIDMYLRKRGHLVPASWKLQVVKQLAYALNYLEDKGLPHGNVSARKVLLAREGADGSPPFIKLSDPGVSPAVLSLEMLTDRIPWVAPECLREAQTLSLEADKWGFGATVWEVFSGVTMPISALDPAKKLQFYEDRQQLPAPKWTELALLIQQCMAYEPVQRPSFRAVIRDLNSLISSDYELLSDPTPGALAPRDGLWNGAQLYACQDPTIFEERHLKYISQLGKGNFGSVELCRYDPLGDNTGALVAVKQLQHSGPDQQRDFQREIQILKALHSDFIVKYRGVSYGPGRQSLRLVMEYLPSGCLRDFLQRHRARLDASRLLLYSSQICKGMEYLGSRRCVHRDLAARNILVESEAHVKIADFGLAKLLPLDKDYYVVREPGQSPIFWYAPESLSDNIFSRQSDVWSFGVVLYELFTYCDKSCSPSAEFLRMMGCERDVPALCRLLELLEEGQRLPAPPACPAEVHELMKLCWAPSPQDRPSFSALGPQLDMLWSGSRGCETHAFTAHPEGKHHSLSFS
Human TYK2, sequence (P29597 whole entry): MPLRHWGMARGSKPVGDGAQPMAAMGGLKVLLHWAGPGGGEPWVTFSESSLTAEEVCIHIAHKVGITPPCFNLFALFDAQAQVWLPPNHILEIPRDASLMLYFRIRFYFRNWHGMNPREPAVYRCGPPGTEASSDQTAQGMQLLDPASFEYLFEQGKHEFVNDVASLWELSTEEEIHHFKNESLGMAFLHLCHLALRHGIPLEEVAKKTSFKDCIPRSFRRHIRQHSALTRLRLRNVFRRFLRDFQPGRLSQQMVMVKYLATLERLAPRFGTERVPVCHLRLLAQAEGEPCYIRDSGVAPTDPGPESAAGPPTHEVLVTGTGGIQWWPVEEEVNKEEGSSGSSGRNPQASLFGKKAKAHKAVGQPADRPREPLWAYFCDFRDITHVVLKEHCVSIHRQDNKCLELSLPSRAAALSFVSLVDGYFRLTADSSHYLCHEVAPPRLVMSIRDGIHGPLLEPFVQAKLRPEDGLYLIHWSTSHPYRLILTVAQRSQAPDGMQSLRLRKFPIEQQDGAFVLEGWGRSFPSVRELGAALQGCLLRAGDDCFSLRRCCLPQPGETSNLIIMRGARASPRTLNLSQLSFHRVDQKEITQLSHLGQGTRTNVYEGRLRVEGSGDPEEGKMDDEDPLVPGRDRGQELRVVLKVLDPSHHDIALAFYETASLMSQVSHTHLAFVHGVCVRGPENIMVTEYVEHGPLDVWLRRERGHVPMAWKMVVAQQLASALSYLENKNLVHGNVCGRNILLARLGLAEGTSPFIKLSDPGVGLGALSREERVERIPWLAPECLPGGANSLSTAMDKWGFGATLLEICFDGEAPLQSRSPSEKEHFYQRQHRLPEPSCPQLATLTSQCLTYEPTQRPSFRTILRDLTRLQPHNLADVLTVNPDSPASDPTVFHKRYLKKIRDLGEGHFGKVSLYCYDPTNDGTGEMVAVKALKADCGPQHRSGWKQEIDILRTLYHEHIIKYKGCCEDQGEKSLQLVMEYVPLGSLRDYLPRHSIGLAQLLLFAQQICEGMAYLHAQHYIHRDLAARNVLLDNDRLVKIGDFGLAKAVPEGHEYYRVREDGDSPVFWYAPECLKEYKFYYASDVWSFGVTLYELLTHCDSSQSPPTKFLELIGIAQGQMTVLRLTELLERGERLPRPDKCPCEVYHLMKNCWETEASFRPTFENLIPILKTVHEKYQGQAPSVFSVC

For `CN(c1ncnc2[nH]ccc12)[C@H]1CN(C(=S)CC#N)CC12CC2` [Example 19, (R)-3-(7-(methyl(7H-pyrrolo[2,3-d]pyrimidin-4-yl)amino)-5-azaspiro[2.4]heptan-5-yl)-3-thioxopropanenitrile], the inhibition at 1 µM came to 98% at Human JAK1, 91% on Human TYK2, 82% at Human JAK3 and 80% at Human JAK2.
As to `CC(C)COC(=O)N1C[C@H](N(C)c2ncnc3[nH]ccc23)C2(CC2)C1` [Example 20, isobutyl (R)-7-(methyl(7H-pyrrolo[2,3-d]pyrimidin-4-yl)amino)-5-azaspiro[2.4]heptane-5-carboxylate], the inhibition at 1 µM at Human JAK1 amounted to 93%; on Human TYK2, 43%; at Human JAK3, 27%; at Human JAK2, 27%.
`CCCCNC(=O)N1C[C@H](N(C)c2ncnc3[nH]ccc23)C2(CC2)C1` [Example 21, (R)-N-butyl-7-(methyl(7H-pyrrolo[2,3-d]pyrimidin-4-yl)amino)-5-azaspiro[2.4]heptane-5-carboxamide]: the inhibition at 1 µM at Human JAK1 was 94%; on Human TYK2, 30%; at Human JAK3, 31%; on Human JAK2 it was -3%.
On the same counts, the results for `CN(c1ncnc2[nH]ccc12)[C@H]1CN(C(=O)NC2CCCCC2)CC12CC2` [Example 22, (R)-N-cyclohexyl-7-(methyl(7H-pyrrolo[2,3-d]pyrimidin-4-yl)amino)-5-azaspiro[2.4]heptane-5-carboxamide] are 90%, 15%, 16% and -5%.
On the same counts, the results for `CN(c1ncnc2[nH]ccc12)[C@H]1CN(C(=O)Nc2ccccc2)CC12CC2` [Example 23, (R)-7-(methyl(7H-pyrrolo[2,3-d]pyrimidin-4-yl)amino)-N-phenyl-5-azaspiro[2.4]heptane-5-carboxamide] are 98%, 78%, 50% and 52%.
On the same counts, the results for `CN(c1ncnc2[nH]ccc12)[C@H]1CN(C(=O)Nc2ccc(F)cc2)CC12CC2` [Example 24, (R)-N-(4-fluorophenyl)-7-(methyl(7H-pyrrolo[2,3-d]pyrimidin-4-yl)amino)-5-azaspiro[2.4]heptane-5-carboxamide] are 94%, 47%, 48% and 6%.
As for `CN(c1ncnc2[nH]ccc12)[C@H]1CN(C(=O)Nc2ccc(Cl)cc2Cl)CC12CC2` [Example 25, (R)-N-(2,4-dichlorophenyl)-7-(methyl(7H-pyrrolo[2,3-d]pyrimidin-4-yl)amino)-5-azaspiro[2.4]heptane-5-carboxamide], the inhibition at 1 µM on Human JAK1 was found to be 88%; on Human TYK2, 48%; on Human JAK3 it was 25%; at Human JAK2, 5%.
In the same order, the values of `CN(c1ncnc2[nH]ccc12)[C@H]1CN(C(=O)Nc2ccc(Cl)c(Cl)c2)CC12CC2` [Example 26, (R)-N-(3,4-dichlorophenyl)-7-(methyl(7H-pyrrolo[2,3-d]pyrimidin-4-yl)amino)-5-azaspiro[2.4]heptane-5-carboxamide] are 94%, 42%, 51% and 13%.
For the molecule `CN(c1ncnc2[nH]ccc12)[C@H]1CN(C(=O)Nc2cc(Cl)ccc2Cl)CC12CC2` [Example 27, (R)-N-(2,5-dichlorophenyl)-7-(methyl(7H-pyrrolo[2,3-d]pyrimidin-4-yl)amino)-5-azaspiro[2.4]heptane-5-carboxamide], the inhibition at 1 µM at Human JAK1 is 91%; at Human TYK2 it was 27%; at Human JAK3 it was 17%; on Human JAK2, -1%.
For the molecule `CN(c1ncnc2[nH]ccc12)[C@H]1CN(C(=O)Nc2cccc(Cl)c2Cl)CC12CC2` [Example 28, (R)-N-(2,3-dichlorophenyl)-7-(methyl(7H-pyrrolo[2,3-d]pyrimidin-4-yl)amino)-5-azaspiro[2.4]heptane-5-carboxamide], the inhibition at 1 µM is 91% at Human JAK1, 39% at Human TYK2, 40% on Human JAK3 and 23% at Human JAK2.
On the same counts, the results for `Cc1ccc(NC(=O)N2C[C@H](N(C)c3ncnc4[nH]ccc34)C3(CC3)C2)cc1Cl` [Example 29, (R)-N-(3-chloro-4-methylphenyl)-7-(methyl(7H-pyrrolo[2,3-d]pyrimidin-4-yl)amino)-5-azaspiro[2.4]heptane-5-carboxamide] are 92%, 43%, 39% and 19%.
In the same order, the values of `CN(c1ncnc2[nH]ccc12)[C@H]1CN(C(=O)Nc2ccccc2-c2ccccc2)CC12CC2` [Example 30, (R)-N-([1,1′-biphenyl]-2-yl)-7-(methyl(7H-pyrrolo[2,3-d]pyrimidin-4-yl)amino)-5-azaspiro[2.4]heptane-5-carboxamide] are 80%, 27%, 14% and -11%.
On the same counts, the results for `CN(c1ncnc2[nH]ccc12)[C@H]1CN(C(=S)Nc2cc(C(F)(F)F)cc(C(F)(F)F)c2)CC12CC2` [Example 31, (R)-N-(3,5-bis(trifluoromethyl)phenyl)-7-(methyl(7H-pyrrolo[2,3-d]pyrimidin-4-yl)amino)-5-azaspiro[2.4]heptane-5-carbothioamide] are 62%, 1%, 13% and -26%.
With `CN(c1ncnc2[nH]ccc12)[C@H]1CN(S(=O)(=O)C(F)(F)F)CC12CC2` [Example 32, (R)-N-methyl-N-(5-((trifluoromethyl)sulfonyl)-5-azaspiro[2.4]heptan-7-yl)-7H-pyrrolo[2,3-d]pyrimidin-4-amine], the inhibition at 1 µM at Human JAK1 worked out at 97%; on Human TYK2, 86%; on Human JAK3 it was 59%; at Human JAK2 it was 68%.
In the same order, the values of `CCS(=O)(=O)N1C[C@H](N(C)c2ncnc3[nH]ccc23)C2(CC2)C1` [Example 33, (R)-N-(5-(ethylsulfonyl)-5-azaspiro[2.4]heptan-7-yl)-N-methyl-7H-pyrrolo[2,3-d]pyrimidin-4-amine] are 98%, 88%, 70% and 84%.
In the same order, the values of `CC(C)S(=O)(=O)N1C[C@H](N(C)c2ncnc3[nH]ccc23)C2(CC2)C1` [Example 34, (R)-N-(5-(isopropylsulfonyl)-5-azaspiro[2.4]heptan-7-yl)-N-methyl-7H-pyrrolo[2,3-d]pyrimidin-4-amine] are 97%, 72%, 56% and 76%.
